Reference: US20100022600A1, “METHODS AND COMPOSITIONS FOR TREATING CENTRAL NERVOUS SYSTEM TUMORS” (priority 2006, published 2010)

Tests used:
[1] = Clinical assessment of neurological deficits in C6 rat glioma model; format: in vivo; details: intracerebral treatment, 21 d
Procedure: After striatal injection of C6 cells and intracerebral treatment with pio or vehicle for 21 d, the animals were examined for neurological deficits. Neurological function was quantified by evaluation of hemiparesis, cycling and immobility (J Neurosurg 1986; 65: 222-9, Stroke 1999; 30: 427-31; discussion 431-2). Hemiparesis was assessed by forelimb flexion and immobility by the loss of ability to walk a distance greater than 15 cm. One point was given for each negative finding and total score then computed. The scores of the treated and untreated group were averaged. A blinded observer performed neurological examinations.

[2] = test system: C6 glioma cells; experiment: Boyden chamber assay, C6 cell migration; format: cell-based, rat
Procedure: C6 cell migration in the presence or absence of pio was assessed using a Boyden chamber (AP48, NeuroProbe, Gaithersburg, Md., USA) with an 8 μm polycarbonate PVPF-filter (Osmonics, Minnetonka, Minn., USA). Cells were suspended in DMEM containing 2.5% fetal calf serum and pio at 30 μM or vehicle (DMSO). C6 glioma cells were pretreated for 24 h in the presence or absence of 30 μM pio. Cells (5×10^3 in 50 μl pio/medium or vehicle/medium) were then plated in the wells of the upper compartment of the chamber (6 well/condition), and the wells of the lower compartment were filled with DMEM. Incubation was performed at 37° C. in 5% CO2 for 4 h. After incubation, cells on the upper surface of the filter, which had not migrated, were gently scraped off, and the filters were then fixed in methanol and subsequently stained with DAPI (1:500 in PBS; Sigma, St. Louis, Mo., USA). The number of cells which migrated to the lower surface of the filter, was counted using public domain software NIH Image 1.62 (Bethesda, Md., USA). Total number of migrating cells under pio treated and vehicle treated condition were compared statistically. Experiments were performed in duplicate.

[3] = test system: C6 glioma cells injected in rat striata; experiment: C6 rat glioma model, tumor volume and histology; format: in vivo; details: for reduction of tumor volume compared to vehicle: 21 d
Procedure: Spraque-Dawley rats (Charles River Laboratories, Sulzfeld, Germany), weighting 200-250 g were used. Animals were housed in groups of two under standard conditions at a temperature of 22° C.±1 and a 12-h light-dark cycle with free access to food and water. Experiments were carried out in accordance with the declaration of Helsinki and were approved by the local ethical committee for animal experiments. Before implantation, 85-90% confluent C6 cells were trypsinized, rinsed with DMEM+10% fetal calf serum, and centrifuged at 1000 rpm for 4 min. The cell pellet was resuspended in DMEM and placed on ice. Concentration of viable cells was adjusted to 1×10^5 cells/1 μl of DMEM. Each rat was anesthetized and placed in a stereotactic frame (David Kopf Instruments, Tujunga, Calif., USA), a hole was drilled at AP 0.0, R -3.0 relative to bregma according to the stereotaxic atlas of […], 1963). Tumor cells were injected at a rate of 0.5 μl/s, using a 2 μl Hamilton (#2701) syringe (Reno, Nev., USA) with a 26 s-gauge needle mounted on a stereotactic holder at a depth of 5 mm. […] For intracerebral administration of pio/vehicle (DMSO), the tip of an Alzet-brain-infusion-kit (Cupertino, Calif., USA) was placed in a depth of 5 mm, connected to a 2ML4 Alzet osmotic pump (Cupertino, Calif., USA). Drug administration began 4 h after surgery. […] The pumps were filled with 20 μM pio solved in PBS or vehicle (DMSO, 0.1% final concentration) solved in PBS. Animals were randomly distributed in two groups, treated with pio filled pumps (n=26) or vehicle filled pumps (n=26). Thereafter skull was cleaned and the incision sutured. […] Control animals received Purina chow without additions. Rats were allowed free access to the chow. Tumors were allowed to grow and animals were weighed daily. […] Brains were serially sectioned at 10 μm using a cryostat (Leica, Jung CMI800, Germany). Sections for hematoxylin-eosin (HE)-staining were placed onto uncoated slides. Sections intended for use in immunoreactivity assays were placed onto coded slides (Fisher finest, premium; Houston, Tex., USA). Sections were routinely HE-stained for histomorphological assessment and measurement of tumor volume as well as immunohistochemically processed for Ki-67-, BAX, cleaved caspase-3-expression, MMP9, CS-56 and BrdU-incorporation. Images of HE-stained sections containing the tumor were captured with a SPOT model 1.3 camera (Diagnostic Instruments, Inc., Sterling Heights, Mich., USA) using a 1× objective and images processed using NIH Image 1.62 software (Bethesda, Md., USA). The tumor area of each section was manually outlined by a blinded observer using the freehand selection tool to measure tumor area in mm^2. The area was then multiplied by the section thickness (10 μm section, 10 sections/HE stain) to achieve a section volume measurement. Volumes of all sections were added to calculate the total volume of each tumor. Tumor volumes for five/six animals of every group were measured.

[4] = test system: Rat C6 glioma cells; experiment: MTT viability assay, rat C6 glioma cells; format: cell-based; details: 10 and 30 μM; concentration- and time-dependent; significant at 5 d and 7 d (30 μM) and at 7 d (10 μM)
Procedure: Rat C6 glioma cells were grown in DMEM and human glioma cells (U87, A172) in RPMI, supplemented with 10% (v/v) fetal calf serum, 100 U/mL penicillin and 100 U/mL streptomycin in a 5% CO2 atmosphere. Primary astrocyte cultures were prepared as described previously (J Neurosci 1998; 18: 4451-60) and grown in DMEM, supplemented with 2.5% (v/v) fetal calf serum, 100 U/mL penicillin and 100 U/mL streptomycin in a 5% CO2 atmosphere. […] Experiments were performed in triplicate.

CCc1ccc(CCOc2ccc(CC3SC(=O)NC3=O)cc2)nc1 (stereo not shown) [pioglitazone, 5-[4-[2-(5-ethylpyridin-2-yl)ethoxyl]benzyl]thiazolidine-2,4-dione]
clinical outcome overall [1]: significant better clinical outcome | cycling ([1]; versus vehicle): no cycling | hemiparesis ([1]; versus vehicle): less hemiparesis | immobility ([1]; versus vehicle): less immobility | invasiveness of C6 cells (migrated cells) ([2]; pio 30 μM during the Boyden chamber incubation, 4 h): reduced the invasiveness of C6 cells significantly | inhibition of invasiveness after pretreatment ([2]; pretreatment of C6 cells for 24 h with 30 μM pio): further increased inhibition | tumor volume compared to vehicle, in words ([3]; intracerebral, 3 and 6 days): no significant differences | tumor volume compared to vehicle, in words ([3]; intracerebral, 9, 14 and 21 days): decreased significantly | reduction of tumor volume compared to vehicle ([3]; intracerebral, pio 20 μM via osmotic pump): 83% | reduction of tumor volume compared to vehicle ([3]; oral treatment (in chow)): 77% | reduction of tumor volume compared to vehicle ([3]; oral treatment (in chow), listed as pio): 76.9% | histological evaluation of tumor margins and invasiveness ([3]; pio treated in vivo gliomas): more defined tumor margins and decreased invasiveness | cellular viability, effect in words [4]: significantly reduced the cellular viability
